Data taken from the supplement of paper PMC10307832.

How the values were obtained:
Experiment in all cases: relative viability (nuclei count vs DMSO), 5 days (fraction); higher = more cells survive
Entinostat + Palbociclib = compound: Nc1ccccc1NC(=O)c1ccc(CNC(=O)OCc2cccnc2)cc1 [Entinostat] + CC(=O)c1c(C)c2cnc(Nc3ccc(N4CCNCC4)cn3)nc2n(C2CCCC2)c1=O [Palbociclib] (partner 0.5 µM)
Outline: (§1)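 After 5 days of treatment, lung cancer cells in 1536-well plates were fixed and stained in a single step (final 0.05% Triton X-100, 1% formaldehyde, 1 ug/ml Hoechst) and their nuclei counted on 4× images. Treatment had been applied by pin tool the day after seeding as one drug alone or as a fixed anchor-drug dose with five library-drug doses (not always all listed) in √10 steps. Relative viability is the nuclei count of treated wells divided by that of vehicle wells, and values are medians of duplicate plates.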

[1] = compound: C1COCCN1C2=NC(=NC3=C2OC4=C3C=CC=N4)C5=CC(=CC=C5)NC(=O)C6=CN=C(C=C6)N + C[C@@H](Oc1cc(-c2cnn(C3CCNCC3)c2)cnc1N)c1c(Cl)ccc(F)c1Cl [Crizotinib] (partner 1 µM)
Outline: as §1

[2] = compound: C1COCCN1C2=NC(=NC3=C2OC4=C3C=CC=N4)C5=CC(=CC=C5)NC(=O)C6=CN=C(C=C6)N + Nc1ncn([C@H]2C[C@H](O)[C@@H](CO)O2)c(=O)n1 [Decitabine] (partner 2 µM)
Outline: as §1

[3] = compound: C1COCCN1C2=NC(=NC3=C2OC4=C3C=CC=N4)C5=CC(=CC=C5)NC(=O)C6=CN=C(C=C6)N + COc1cccc2cc(-c3nc([C@H]4CC[C@H](C(=O)O)CC4)n4ncnc(N)c34)[nH]c12 [OSI-027] (partner 0.5 µM)
Outline: as §1

With UMC-11 the relative viability (Entinostat + Palbociclib; first compound 0.02 µM) was 0.367, the relative viability (Entinostat + Palbociclib; first compound 0.06325 µM) was 0.338 and the relative viability (Entinostat + Palbociclib; first compound 0.2 µM) was 0.367. For the same cell line, the relative viability (Entinostat + Palbociclib; first compound 0.6325 µM) was 0.274, the relative viability (Entinostat + Palbociclib; first compound 2 µM) was 0.202 and the relative viability ([1]; first compound 0.02 µM) was 0.564. The relative viability ([1]; first compound 0.06325 µM) was 0.59, the relative viability ([1]; first compound 0.2 µM) was 0.677 and the relative viability ([1]; first compound 0.6325 µM) was 0.672. For the same cell line, the relative viability ([1]; first compound 2 µM) was 0.498, the relative viability ([2]; first compound 0.02 µM) was 0.582 and the relative viability ([2]; first compound 0.06325 µM) was 0.537. For the same cell line, the relative viability ([2]; first compound 0.2 µM) was 0.551, the relative viability ([2]; first compound 0.6325 µM) was 0.537 and the relative viability ([2]; first compound 2 µM) was 0.573. The relative viability ([3]; first compound 0.02 µM) was 0.443, the relative viability ([3]; first compound 0.06325 µM) was 0.511 and the relative viability ([3]; first compound 0.2 µM) was 0.46. It also gave a relative viability ([3]; first compound 0.6325 µM) of 0.406 and a relative viability ([3]; first compound 2 µM) of 0.375.
